{"source": "patent US5157020A", "about": "“Synthetic senescent cell antigen” (Research Corporation Tech., Inc., priority 1990, dated 1992)", "key": {"[1]": {"tested_on": "senescent cell IgG", "assay": "IgG binding and inhibition assay (competitive inhibition of senescent cell IgG binding to stored erythrocytes, 125I-Protein A)", "parameters": "species or system human", "settings": "for INHIBITION (%) of senescent cell IgG binding: Table 1, peptides 300 ug, senescent cell IgG 3 ug, 90 mins at room temperature, mean ± 1 SD of quadruplicate samples; for INHIBITION (%) of senescent cell IgG binding to erythrocytes, before or after DIDS modification: Table 4, 30 ug, stored red cells, ± SD, unmodified ANION 1 and COOH from a separate experiment; for inhibition of senescent cell IgG binding (in words): competitive inhibition assay", "procedure": "IgG binding and inhibition assay. IgG was isolated from senescent RBC from 50 liters of blood and purified with Protein A Sepharose as previously described (2, 4). IgG eluted from senescent cells (SCIgG), rather than serum IgG, was used because normal serum contains antibodies to spectrin, actin, 2.1, etc. (28). Competitive inhibition studies were performed using synthetic peptides to absorb the IgG isolated from senescent erythrocytes. Intact dimeric, senescent cell IgG containing the Fc portion binds to senescent cells in situ and initiates their removal (1-7, 30). Fab fragments were not used because we were simulating the physiological situation. IgG isolated from aged erythrocytes binds specifically to senescent cells. […] Moreover, the specific binding capacity of the autoantibody was eliminated by absorption with purified senescent cell antigen (SCA; 7). […] Storage mimics normal aging in situ immunologically and biochemically (1-7, 30). The number of red cell-bound IgG molecules was quantitated before and after absorption using equilibrium binding kinetics (7, 30, 31). Details of the methods are given elsewhere (27). Percent inhibition was calculated from the following formula: 100[1-(x-b/T-b)] where x=molecules of IgG autoantibody bound per cell; T=total number of IgG antibody molecules bound in the absence of inhibitor; b=background Protein A binding.\nCompetitive inhibition studies were performed using synthetic peptides to absorb the IgG isolated from senescent erythrocytes. IgG binding and inhibition were determined with a protein A binding assay. This biological assay measures the fate of erythrocytes in vitro and in vivo (1, 2, 4).\nIgG binding and inhibition assay. Competitive inhibition studies were performed using synthetic peptides to absorb the IgG isolated from senescent erythrocytes. This is the same IgG that initiates phagocytosis in situ. The Fc portion IgG is required for binding and phagocytosis of cells by macrophages (3, 2, 4, 7, 29). Fab fragments were not used because we were simulating the physiological situation. Intact dimeric, senescent cell IgG containing the Fc portion binds to senescent cells in situ and initiates their removal (3, 32, 2, 4, 6, 17, 7). Only IgG isolated from aged erythrocytes binds specifically to senescent cells. […] Moreover, the specific binding capacity of the autoantibody was eliminated by absorption with purified senescent cell antigen (39). […] Storage mimics normal aging in situ immunologically and biochemically (32, 2, 4, 6, 29, 7). After incubation with absorbed IgG, cells were washed four times with 40-50 volumes of phosphate buffered saline containing 0.2% bovine serum albumin (BSA, fraction V, Sigma, St. Louis, Mo.) and 0.5% glucose. Washed cells were transferred to BSA-coated tubes (5×10^7 cells/50 ul) and incubated for 30 min. at 37° C. with ^125 I-Protein A (Amersham, Arlington Heights, Ill. 30-38 mCi/mg, 10-15 ng/tube). Cells were then washed four times and transferred to new tubes before counting in a gamma scintillation counter (Beckman, Gamma 5,500). The number of red cell-bound IgG molecules was quantitated before and after absorption using equilibrium binding kinetics (7).\nScatchard analysis was performed. Scathard, NY Acad. Sci. 51:660-672 (1949), incorporated herein by reference. Percent inhibition was calculated from the following formula: 100[1-(x-b/T-b)] where x=molecules of IgG autoantibody bound per cell; T=total number of IgG antibody molecules bound in the absence of inhibitor; b=background Protein A binding."}, "[2]": {"tested_on": "senescent cell IgG", "assay": "Immunoblotting of synthetic peptides with IgG autoantibody from senescent erythrocytes", "type": "binding, human", "settings": "autoradiograph of immunoblot, FIG. 4", "procedure": "Sodium dodecyl sulfate (NaDodSO4) polyacrylamide gel electrophoresis and immunostaining of peptides. Peptides were analyzed on 6-25% or 12-25% linear gels (6, 7, 27-29). Immunoautoradiography was performed by immunoblotting as described previously (6, 7, 28-30). Immunoblots were exposed to Kodak Ortho G (OG-1) film at -70° C. using our standard procedures (30, 45).\nWe used immunoblotting of the peptides followed by reaction with IgG eluted from senescent red cells (SCIgG) to localize the aging antigen site (FIG. 4A and B). We also used the IgG binding and inhibition assay at a singe concentration of peptide and performed Scatchard analysis (Table 2). […] Peptides that were negative by immunoblotting were also negative in the inhibition assay (FIG. 4 and Table 2)."}, "[3]": {"tested_on": "erythrocyte anion transport", "assay": "Peptide inhibition of sulfate influx (anion transport) in erythrocytes", "type": "cell-based, human", "settings": "for inhibition of anion transport (in words): equimolar amounts of peptide and sulfate", "procedure": "Anion transport and DIDS inhibition measurements. Sulfate exchange is inhibited by […]. Stilbenedisulfonate derivatives such as DIDS inhibit anion transport by binding to at least two lysine residues in the membrane-spanning region of band 3 (45, 23, 35).\nPeptide inhibition of sulfate \"influx\" experiments were performed essentially according to method of Jennings (46) using 300 mM sucrose, 10 mM Tris-HEPES, pH 7.0, as the \"influx\" buffer (47). Washed cells were incubated in 20-30 volumes of 110 mM K2 SO4 for 10 min at 37° C. to replace intracellular chloride. The cells were centrifuged and the supernatant removed and replaced with 110 mM K2 SO4 for 10 min. This was repeated 3 times. After the last centrifugation, cells were resuspended 300 mM sucrose, 10 mM Tris-HEPES, pH 7.0, and washed once. Cells were suspended to 2×10^8 cells/ml in 2 ml influx buffer at 37° C. Radioactive sulfate (0.01 mM) was added (582 mCi/mM) at suitable time intervals. Samples were taken and added to 18 volumes of ice cold 1.15% KCl (154 mM KCl) buffered to pH 7.4 with MOPS (\"wash buffer\"). The high chloride concentration, temperature, and pH all inhibit sulfate transport. Cells were washed twice to remove external sulfate at 0° C. with wash buffer. All samples were deproteinized with trichloracetic acid (final concentration 6.7%) and counted with Ready-Solv HP/6 (Beckman, Fullerton, Calif.) in a liquid scintillation counter. For peptide inhibition of sulfate transport, 0.01 mM of peptide(s) were added to the radioactive sulfate prior to addition to cells suspended in influx buffer."}, "[4]": {"assay": "Solubility of peptides in physiologic solutions", "type": "physicochemical", "settings": "even when coupled to BSA", "procedure": "Peptides. Peptides were prepared by solid phase synthesis using an Applied Biosystems 430A automatic peptide synthesizer. They were analyzed by amino acid analysis, HPLC, sequencing, and/or FABS to determine purity. Amino acids are referred to by the standard single letter code. Peptides that are not soluble in phosphate buffered saline were dissolved in 1-2% NaDodSO4. Others were solubilized in acetic acid or trifluoroacetic acid, and sodium dodecyl sulfate (1-2%) is added. Once the peptides were in solution, they were conjugated to ovalbumin (5X crystallized) or BSA with 0.02% glutaraldehyde (32). The reaction was allowed to proceed for 30-60 min. blocked with ethanolamine, and the conjugate dialysed against PBS in tubing with a molecular weight cut off of ≤1000."}, "[5]": {"settings": "at concentrations up to / as high as 100 ug"}, "[6]": {"settings": "equimolar peptide and sulfate (0.01 mM)"}}, "note": "Entries after “also recorded” stand apart in the source; their conditions may differ. Where a SMILES comes first, the peptide text is derived from it."}
{"compound": "SKLIKIFQDHPLQKTYN [ANION 1]", "values": [{"measurement": "INHIBITION (%) of senescent cell IgG binding", "setting": "[1]", "result": "88 ± 7", "unit": "%"}, {"measurement": "INHIBITION (%) of senescent cell IgG binding to erythrocytes, before or after DIDS modification", "setting": "[1]", "result": "32 ± 2", "unit": "%"}, {"measurement": "inhibition of senescent cell IgG binding", "setting": "[1]; [5]", "result": "≤ 50", "unit": "%"}, {"measurement": "inhibition of senescent cell IgG binding (in words)", "setting": "[1]", "result": "inhibitory over a range of 3 to 100 ug"}, {"measurement": "binding of senescent cell IgG to peptide in immunoblots", "setting": "[2]", "result": "trace binding"}, {"measurement": "inhibition of anion transport (in words)", "setting": "[3]", "result": "does not inhibit anion transport"}, {"measurement": "inhibition of anion transport", "setting": "[3]; [6]", "result": "8±7", "unit": "%"}]}
{"compound": "AGVANQLLDRFIFEDQ [CYTO, reference compound]", "values": [{"measurement": "INHIBITION (%) of senescent cell IgG binding", "setting": "[1]", "result": 0, "unit": "%"}, {"measurement": "inhibition of senescent cell IgG binding (in words)", "setting": "[1]", "result": "does not inhibit"}]}
{"compound": "CC[C@H](C)[C@H](NC(=O)CNC(=O)[C@H](CO)NC(=O)[C@H](CC(C)C)NC(=O)[C@H](CO)NC(=O)[C@@H](NC(=O)[C@@H](NC(=O)CNC(=O)[C@H](CCSC)NC(=O)[C@H](Cc1ccc(O)cc1)NC(=O)[C@H](CC(C)C)NC(=O)[C@H](Cc1ccccc1)NC(=O)[C@@H](NC(=O)CNC(=O)[C@@H](N)Cc1ccccc1)[C@@H](C)CC)C(C)C)[C@@H](C)O)C(=O)N[C@@H](CCC(N)=O)C(=O)N[C@@H](CC(C)C)C(=O)O", "note": "[789-805, FGIFLYMGVTSLSGIQL] (H-FGIFLYMGVTSLSGIQL-OH)", "values": [{"measurement": "solubility", "setting": "[4]", "result": "not completely soluble"}]}
{"compound": "LFKPPKYHPDVPYVKR [COOH]", "values": [{"measurement": "INHIBITION (%) of senescent cell IgG binding", "setting": "[1]", "result": "99 ± 1", "unit": "%"}, {"measurement": "INHIBITION (%) of senescent cell IgG binding to erythrocytes, before or after DIDS modification", "setting": "[1]", "result": "20 ± 1", "unit": "%"}, {"measurement": "inhibition of senescent cell IgG binding", "setting": "[1]; [5]", "result": "≤ 50", "unit": "%"}, {"measurement": "inhibition of senescent cell IgG binding (in words)", "setting": "[1]", "result": "inhibitory over a range of 3 to 100 ug"}, {"measurement": "binding of senescent cell IgG to peptide in immunoblots", "setting": "[2]", "result": "binding"}, {"measurement": "inhibition of anion transport", "setting": "[3]; at 5 min, FIG. 7, compared to control without peptide", "result": "52±3", "unit": "%"}, {"measurement": "inhibition of anion transport (in words)", "setting": "[3]", "result": "potent inhibitors of anion transport"}]}
{"compound": "CC[C@H](C)[C@H](NC(=O)CNC(=O)[C@H](CO)NC(=O)[C@@H](N)CC(C)C)C(=O)N[C@@H](CCC(N)=O)C(=O)N[C@@H](CC(C)C)C(=O)N[C@@H](Cc1ccccc1)C(=O)N[C@@H](CC(=O)O)C(=O)N[C@@H](CCCNC(=N)N)C(=O)N[C@H](C(=O)N[C@@H](CC(C)C)C(=O)N[C@@H](CC(C)C)C(=O)N[C@@H](CC(C)C)C(=O)N[C@@H](Cc1ccccc1)C(=O)N[C@@H](CCCCN)C(=O)N1CCC[C@H]1C(=O)N1CCC[C@H]1C(=O)N[C@@H](CCCCN)C(=O)N[C@@H](Cc1ccc(O)cc1)C(=O)O)[C@@H](C)CC", "note": "[800-818, LSGIQLFDRILLLFKPPKY] (H-LSGIQLFDRILLLFKPPKY-OH)", "values": [{"measurement": "solubility", "setting": "[4]", "result": "not completely soluble"}]}
{"compound": "LRKFKNSSYFPGKLR [ANION 2]", "values": [{"measurement": "INHIBITION (%) of senescent cell IgG binding", "setting": "[1]", "result": "30 ± 12", "unit": "%"}, {"measurement": "inhibition of senescent cell IgG binding (in words)", "setting": "[1]", "result": "only slightly inhibitory; also recorded: only weakly inhibitory"}, {"measurement": "binding of senescent cell IgG to peptide in immunoblots", "setting": "[2]", "result": "bound"}, {"measurement": "inhibition of anion transport", "setting": "[3]; [6]", "result": "38±4", "unit": "%"}]}
{"compound": "QKLSVPDGFKVSNSSARGW [GLYCOS]", "values": [{"measurement": "INHIBITION (%) of senescent cell IgG binding to erythrocytes", "setting": "[1]; Table 2, all peptides tested at 30 ug, ± standard deviation", "result": "9 ± 0", "unit": "%"}, {"measurement": "inhibition of senescent cell IgG binding (in words)", "setting": "[1]", "result": "only weakly inhibitory"}, {"measurement": "binding of senescent cell IgG to peptide in immunoblots", "setting": "[2]", "result": "Binding of antibody"}]}
{"compound": "FKPPKY (UniProt P02730 813-818, looked up, fragment) [N6]", "values": [{"measurement": "inhibition of senescent cell IgG binding", "setting": "[1]; at 10 ug", "result": "48±1", "unit": "%"}, {"measurement": "inhibition of senescent cell IgG binding", "setting": "[1]; at 10 ug, listed as COOH hexamer (N6)", "result": "~ 50%"}, {"measurement": "inhibition of anion transport (in words)", "setting": "[3]", "result": "potent inhibitors of anion transport"}]}
{"compound": "YHPDVPYVKR [818-827]", "values": [{"measurement": "percent inhibition of senescent cell IgG binding", "setting": "[1]; FIG. 2 legend, 12.2 ug", "result": "54±7"}, {"measurement": "inhibition of senescent cell IgG binding", "setting": "[1]; at 30 ug", "result": "54±3", "unit": "%"}]}
{"compound": "CC[C@H](C)[C@H](NC(=O)CNC(=O)[C@H](Cc1ccccc1)NC(=O)[C@H](CC(C)C)NC(=O)[C@@H](NC(=O)[C@H](C)NC(=O)[C@H](CC(C)C)NC(=O)[C@@H]1CCCN1C(=O)[C@@H](NC(=O)[C@H](CCCNC(=N)N)NC(=O)[C@H](CO)NC(=O)[C@H](CC(C)C)NC(=O)[C@@H](NC(=O)[C@@H]1CCCN1C(=O)[C@H](CCC(=O)O)NC(=O)[C@@H](N)CCSC)[C@@H](C)CC)[C@@H](C)CC)C(C)C)C(=O)N[C@@H](Cc1ccccc1)C(=O)N[C@@H](CC(C)C)C(=O)O", "note": "[776-793, MEPILSRIPLAVLFGIFL] (H-MEPILSRIPLAVLFGIFL-OH)", "values": [{"measurement": "solubility", "setting": "[4]", "result": "not completely soluble"}]}
